Results as given in patent US9115134B2, “6-triazolopyridazine sulfanyl benzothiazole derivatives as MET inhibitors” (SANOFI, priority 2007, dated 2015).

Experiments:
[1] = system: HCT116 cells, MKN45 cells; assay: Test C: Measurement of cell proliferation by 14C-thymidine pulse; format: cell-based; details: 14C-thymidine incorporation, 96 h of treatment; cell line not given
Outline: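 HCT116 (2500/well, DMEM) and MKN45 (7500/well, RPMI), both with 10% FCS, treated after 4 h with 10 concentrations from 10 000 to 0.3 nM (3-fold, duplicate). ¹⁴C-thymidine (0.1 μCi/well) added at 72 h; incorporation read after 24 h pulse, 96 h total treatment.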

[2] = biological target: T1, MET (Homo sapiens, UniProt P08581); assay: Test B: Inhibition of the autophosphorylation of MET; ELISA technique (pppY1230,1234,1235) in MKN45 cells; format: cell-based; design: Seed MKN45 cells into 96-well plates (Cell coat BD polylysine) at 20 000 cells/well; endogenous in cells; host or cells: MKN45 cells; details: 1 h treatment, PhosphoMET ELISA
Outline: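 Adhered cells treated 1 h with six compound concentrations in duplicate, final 10 000 to 30 nM, against DMSO controls. Cells then lysed at 4° C for 30 min in Triton/SDS/deoxycholate buffer with phosphatase inhibitors. Phospho-MET measured by sandwich ELISA with anti-phospho MET antibody and HRP detection, absorbance at 450 nm.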
Target sequence in this assay (P08581 25-1390): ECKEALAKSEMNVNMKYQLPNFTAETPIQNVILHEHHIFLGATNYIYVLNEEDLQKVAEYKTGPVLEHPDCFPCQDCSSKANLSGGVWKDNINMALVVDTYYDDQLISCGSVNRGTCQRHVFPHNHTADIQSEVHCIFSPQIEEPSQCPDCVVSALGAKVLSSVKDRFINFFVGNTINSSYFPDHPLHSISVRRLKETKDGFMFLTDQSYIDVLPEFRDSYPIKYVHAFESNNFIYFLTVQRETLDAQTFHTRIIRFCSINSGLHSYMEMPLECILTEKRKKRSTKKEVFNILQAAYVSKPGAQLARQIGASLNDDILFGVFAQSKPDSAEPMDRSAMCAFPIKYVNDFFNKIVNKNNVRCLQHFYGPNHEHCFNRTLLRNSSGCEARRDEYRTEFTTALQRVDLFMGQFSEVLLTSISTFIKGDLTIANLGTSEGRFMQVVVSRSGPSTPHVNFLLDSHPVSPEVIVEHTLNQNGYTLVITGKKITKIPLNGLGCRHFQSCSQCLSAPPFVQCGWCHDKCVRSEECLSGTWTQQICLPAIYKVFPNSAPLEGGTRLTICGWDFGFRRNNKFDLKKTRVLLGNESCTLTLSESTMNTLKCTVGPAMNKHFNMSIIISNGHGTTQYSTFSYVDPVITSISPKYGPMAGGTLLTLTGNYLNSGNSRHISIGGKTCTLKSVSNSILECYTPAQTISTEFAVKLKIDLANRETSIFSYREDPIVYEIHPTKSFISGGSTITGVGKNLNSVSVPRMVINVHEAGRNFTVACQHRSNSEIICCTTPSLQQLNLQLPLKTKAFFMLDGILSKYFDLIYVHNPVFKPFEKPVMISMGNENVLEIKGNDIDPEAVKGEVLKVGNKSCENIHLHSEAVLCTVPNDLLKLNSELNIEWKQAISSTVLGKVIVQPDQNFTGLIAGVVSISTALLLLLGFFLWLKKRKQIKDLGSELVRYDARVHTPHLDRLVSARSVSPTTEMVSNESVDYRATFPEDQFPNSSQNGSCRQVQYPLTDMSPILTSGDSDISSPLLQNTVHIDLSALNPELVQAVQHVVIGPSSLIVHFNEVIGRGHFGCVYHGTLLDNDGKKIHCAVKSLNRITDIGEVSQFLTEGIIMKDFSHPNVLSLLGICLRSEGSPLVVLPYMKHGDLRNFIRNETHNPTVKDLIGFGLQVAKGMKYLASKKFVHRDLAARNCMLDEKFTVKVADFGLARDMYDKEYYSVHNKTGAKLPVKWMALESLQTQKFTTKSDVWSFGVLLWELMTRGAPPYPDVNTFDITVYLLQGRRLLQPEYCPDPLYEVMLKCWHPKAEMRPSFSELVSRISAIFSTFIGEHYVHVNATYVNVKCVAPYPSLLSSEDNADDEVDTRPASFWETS

[3] = biological target: T1, MET; assay: Test A: HTRF MET assay in 96-well format; format: biochemical; design: The His-Tev-MET (956-1390) recombinant DNA in pFastBac (Invitrogen) is transfected into insect cells; His tag (N, cleaved yes); TEV cleavage site (N); made in house; host or cells: SF21 insect cells (baculovirus, pFastBac); details: MET 5 nM, 10 μM ATP
Outline: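 Purified human MET cytoplasmic domain (956-1390, His tag cleaved), 5 nM, with compound (0.17 nM–10 μM, 3% DMSO) in MOPS pH 7.4; 1 μg/ml poly-(GAT), 10 μM ATP, 5 mM MgCl2, 10 min at ambient temperature. HTRF read-out (streptavidin-XL/anti-pTyr Eu cryptate, 2 h); % inhibition from 665/620 ratios.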
Target sequence in this assay (P08581 956-1390): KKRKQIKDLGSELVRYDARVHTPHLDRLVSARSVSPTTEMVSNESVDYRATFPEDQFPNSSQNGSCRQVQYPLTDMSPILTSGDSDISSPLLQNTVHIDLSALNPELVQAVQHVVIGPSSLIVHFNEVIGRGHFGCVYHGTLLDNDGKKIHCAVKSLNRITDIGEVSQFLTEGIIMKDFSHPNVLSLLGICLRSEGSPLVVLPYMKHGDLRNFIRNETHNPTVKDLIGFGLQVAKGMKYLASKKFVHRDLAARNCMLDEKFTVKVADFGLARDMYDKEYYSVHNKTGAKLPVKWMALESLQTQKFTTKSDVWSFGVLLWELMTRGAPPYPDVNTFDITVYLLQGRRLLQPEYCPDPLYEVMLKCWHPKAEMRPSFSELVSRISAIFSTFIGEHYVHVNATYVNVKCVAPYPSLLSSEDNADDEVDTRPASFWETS

| SMILES | IC50 [1] | IC50 [2] | IC50 [3] |
| --- | --- | --- | --- |
| O=C(NCCN1CCOCC1)Nc1nc2ccc(Sc3nnc4n3N=C(c3ccc(F)cc3)CC4)cc2s1 [Example 44, 1-(6-{[6-(4-Fluorophenyl)-7,8-dihydro-[1,2,4]triazolo[4,3-b]pyridazin-3-yl]sulphanyl}-1,3-benzothiazol-2-yl)-3-[2-(morpholin-4-yl)ethyl]urea] | < 1000 nM | < 100 nM | < 100 nM |
| CCOC(=O)Nc1nc2ccc(Sc3nnc4ccc(OC)nn34)cc2s1 [Example 45, Ethyl {6-[(6-methoxy[1,2,4]triazolo[4,3-b]pyridazin-3-yl)sulphanyl]-1,3-benzothiazol-2-yl}carbamate] | < 1000 nM | 100 to 500 nM | < 100 nM |
| COCCCOC(=O)Nc1nc2ccc(Sc3nnc4ccc(OC)nn34)cc2s1 [Example 46, 3-Methoxypropyl {6-[(6-methoxy[1,2,4]triazolo[4,3-b]pyridazin-3-yl)sulphanyl]-1,3-benzothiazol-2-yl}carbamate] | < 1000 nM | 100 to 500 nM | < 100 nM |
| COCCCOC(=O)Nc1nc2ccc(Sc3nnc4ccc(NCCOC)nn34)cc2s1 [Example 47, 3-Methoxypropyl[6-({6-[(2-methoxyethyl)amino][1,2,4]triazolo[4,3-b]pyridazin-3-yl}sulphanyl)-1,3-benzothiazol-2-yl]carbamate] | < 1000 nM | 100 to 500 nM | < 100 nM |
| COCCNc1ccc2nnc(Sc3ccc4nc(NC(=O)NCCN5CCCC5)sc4c3)n2n1 [Example 48, 1-[6-({6-[(2-Methoxyethyl)amino][1,2,4]triazolo[4,3-b]pyridazin-3-yl}sulphanyl)-1,3-benzothiazol-2-yl]-3-[2-(pyrrolidin-1-yl)ethyl]urea] | < 1000 nM | 100 to 500 nM | < 100 nM |
| COc1ccc2nnc(Sc3ccc4nc(NC(=O)NCCN5CCCC5)sc4c3)n2n1 [Example 49, 1-{6-[(6-Methoxy[1,2,4]triazolo[4,3-b]pyridazin-3-yl)sulphanyl]-1,3-benzothiazol-2-yl}-3-[2-(pyrrolidin-1-yl)ethyl]urea] | < 1000 nM | < 100 nM | < 100 nM |

Next, values leading:

| IC50 [1] | IC50 [2] | IC50 [3] | SMILES |
| --- | --- | --- | --- |
| < 1000 nM | < 100 nM | < 100 nM | COCCNc1ccc2nnc(Sc3ccc4nc(NC(=O)CCCN5CCOCC5)sc4c3)n2n1 [Example 39, N-[6-({6-[(2-Methoxyethyl)amino][1,2,4]triazolo[4,3-b]pyridazin-3-yl}sulphanyl)-1,3-benzothiazol-2-yl]-4-(morpholin-4-yl)butanamide] |
| < 1000 nM | < 100 nM | < 100 nM | COCCNc1ccc2nnc(Sc3ccc4nc(NC(=O)C5CC5)sc4c3)n2n1 [Example 40, N-[6-({6-[(2-Methoxyethyl)amino][1,2,4]triazolo[4,3-b]pyridazin-3-yl}sulphanyl)-1,3-benzothiazol-2-yl]cyclopropanecarboxamide] |
| < 1000 nM | < 100 nM | < 100 nM | CC(=O)Nc1nc2ccc(Sc3nnc4ccc(-c5ccc(F)cc5)nn34)cc2s1 [Example 41, N-(6-{[6-(4-Fluorophenyl)[1,2,4]triazolo[4,3-b]pyridazin-3-yl]sulphanyl}-1,3-benzothiazol-2-yl)acetamide] |
| < 1000 nM | < 100 nM | < 100 nM | O=C(NCC[N+]1([O-])CCOCC1)Nc1nc2ccc(Sc3nnc4ccc(-c5ccc(F)cc5)nn34)cc2s1 [Example 42, 1-(6-{[6-(4-Fluorophenyl)[1,2,4]triazolo[4,3-b]pyridazin-3-yl]sulphanyl}-1,3-benzothiazol-2-yl)-3-[2-(4-oxidomorpholin-4-yl)ethyl]urea] |
| < 1000 nM | < 100 nM | < 100 nM | Cn1cc(-c2ccc3nnc(Sc4ccc5nc(N)sc5c4)n3n2)cn1 [Example 43, 6-{[6-(1-Methyl-1H-pyrazol-4-yl)[1,2,4]triazolo[4,3-b]pyridazin-3-yl]sulphanyl}-1,3-benzothiazol-2-amine] |
